Experimental data as given in US12435044B2, “Pyridazinone herbicides and pyridazinone intermediates used to prepare a herbicide” (FMC Corporation, priority 2018, dated 2025).

How the values were obtained:
Assay type in all cases: in vivo
[1] = test system: windgrass (Apera spica-venti); assay: Test C pre-/postemergence greenhouse test; conditions: Preemergence, scale 0 to 100
Excerpt: (§1) Seeds of plant species selected from blackgrass (Alopecurus myosuroides), ryegrass, Italian (Lolium multiflorum), wheat, winter (winter wheat, Triticum aestivum), galium (catchweed bedstraw, Galium aparine), corn (Zea mays), crabgrass, large (Digitaria sanguinalis), foxtail, giant (Setaria faberii), johnsongrass (Sorghum halepense), lambsquarters (Chenopodium album), morningglory (Ipomoea coccinea), nutsedge, yellow (Cyperus esculentus), pigweed (Amaranthus retroflexus), ragweed (common ragweed, Ambrosia elatior), soybean (Glycine max), barnyardgrass (Echinochloa crus-galli), oilseed rape (Brassica napus), waterhemp (common waterhemp, Amaranthus rudis), pigweed, palmer (Amaranthus palmeri), kochia (Kochia scoparia), oat, wild (Avena fatua), surinam grass (Brachiaria decumbens), windgrass (Apera spica-venti), poinsettia, wild (Euphorbia heterophylla) and velvetleaf (Abutilon theophrasti) were planted into a silt loam soil and treated preemergence with test chemicals formulated in a non-phytotoxic solvent mixture which included a surfactant.
(§2) At the same time, plants selected from these crop and weed species and also chickweed (common chickweed, Stellaria media), buckwheat, wild (Polygonum convolvulus), mustard, wild (Sinapis arvensis), field poppy (Papaver rhoeas), field violet (Viola arvensis), nightshade (eastern black nightshade, Solanum ptycanthum), speedwell (bird's-eye speedwell, Veronica persica), horseweed (Conyza canadensis), cutleaf geranium (Geranium dissectum), and Canada thistle (Cirsium arvense) were planted in pots containing Redi-Earth® planting medium (Scotts Company, 14111 Scottslawn Road, Marysville, Ohio 43041) comprising spaghnum peat moss, vermiculite, wetting agent and starter nutrients and treated with postemergence applications of test chemicals formulated in the same manner. Plants ranged in height from 2 to 18 cm (1- to 4-leaf stage) for postemergence treatments. Treated plants and controls were maintained in a greenhouse for 13 to 21 d, after which time all species were compared to controls and visually evaluated. Plant response ratings, summarized in Table C-1 (postemergence) and C-2 (preemergence), are based on a scale of 0 to 100 where 0 is no effect and 100 is complete control. A dash (-) response means no test result.

[2] = test system: waterhemp (common waterhemp, Amaranthus rudis); assay: Test C pre-/postemergence greenhouse test; conditions: scale 0 to 100
Excerpt: as §1, §2

[3] = test system: johnsongrass (Sorghum halepense); assay: Test C pre-/postemergence greenhouse test; conditions: Preemergence, scale 0 to 100
Excerpt: as §1, §2

[4] = test system: wheat, winter (winter wheat, Triticum aestivum); assay: Test C pre-/postemergence greenhouse test; conditions: scale 0 to 100
Excerpt: as §1, §2

[5] = test system: barnyardgrass (Echinochloa crus-galli); assay: Test C pre-/postemergence greenhouse test; conditions: scale 0 to 100
Excerpt: as §1, §2

kochia (Kochia scoparia) [6] = assay: Test C pre-/postemergence greenhouse test; conditions: scale 0 to 100
Excerpt: as §1, §2

[7] = test system: ragweed (common ragweed, Ambrosia elatior); assay: Test A pre-/postemergence greenhouse test
Excerpt: (§3) Seeds of plant species selected from barnyardgrass (Echinochloa crus-galli), kochia (Kochia scoparia), ragweed (common ragweed, Ambrosia elatior), ryegrass, Italian (Lolium multiflorum), foxtail, giant (Setaria faberii), foxtail, green (Setaria viridis) and pigweed (Amaranthus retroflexus) were planted into a blend of loam soil and sand and treated preemergence with a directed soil spray using test chemicals formulated in a non-phytotoxic solvent mixture which included a surfactant.
(§4) At the same time, plants selected from these weed species and also wheat (Triticum aestivum), corn (Zea mays), blackgrass (Alopecurus myosuroides) and galium (catchweed bedstraw, Galium aparine) were planted in pots containing the same blend of loam soil and sand and treated with postemergence applications of test chemicals formulated in the same manner. Plants ranged in height from 2 to 10 cm and were in the one- to two-leaf stage for the postemergence treatment. Treated plants and untreated controls were maintained in a greenhouse for approximately 10 d, after which time all treated plants were compared to untreated controls and visually evaluated for injury. Plant response ratings, summarized in Table A, are based on a 0 to 100 scale where 0 is no effect and 100 is complete control. A dash (-) response means no test result.

[8] = test system: ryegrass, Italian (Lolium multiflorum); assay: Test A pre-/postemergence greenhouse test
Excerpt: as §3, §4

[9] = test system: pigweed (Amaranthus retroflexus); assay: Test A pre-/postemergence greenhouse test
Excerpt: as §3, §4

[10] = test system: barnyardgrass (Echinochloa crus-galli); assay: Test A pre-/postemergence greenhouse test
Excerpt: as §3, §4

kochia (Kochia scoparia) [11] = assay: Test A pre-/postemergence greenhouse test
Excerpt: as §3, §4

[12] = test system: blackgrass (Alopecurus myosuroides); assay: Test A postemergence greenhouse test
Excerpt: as §3, §4

corn (Zea mays) = assay: Test A postemergence greenhouse test
Excerpt: as §3, §4

[13] = test system: wheat (Triticum aestivum); assay: Test A postemergence greenhouse test
Excerpt: as §3, §4

[14] = test system: galium (catchweed bedstraw, Galium aparine); assay: Test A postemergence greenhouse test
Excerpt: as §3, §4

Compound: Cc1ccc2ccc(F)cc2c1-c1c(O)c(Cl)nn(C)c1=O [Cpd. No. 21]
- Plant response rating, Windgrass ([1]; 31 g ai/ha): 75
- Plant response rating, Windgrass ([1]; 61 g ai/ha): 50
- Plant response rating, Windgrass ([1]; 62 g ai/ha): 85
- Plant response rating, Windgrass ([1]; 125 g ai/ha): 98
- Plant response rating, Waterhemp ([2]; Postemergence, 16 g ai/ha): 80
- Plant response rating, Waterhemp ([2]; Postemergence, 31 g ai/ha): 85
- Plant response rating, Waterhemp ([2]; Postemergence, 62 g ai/ha): 98
- Plant response rating, Waterhemp ([2]; Postemergence, 125 g ai/ha): 90
- Plant response rating, Waterhemp ([2]; Preemergence, 31 g ai/ha): 85
- Plant response rating, Waterhemp ([2]; Preemergence, 61 g ai/ha): 80
- Plant response rating, Waterhemp ([2]; Preemergence, 62 g ai/ha): 95
- Plant response rating, Waterhemp ([2]; Preemergence, 125 g ai/ha): 98
- Plant response rating, Johnsongrass ([3]; 31 g ai/ha): 10
- Plant response rating, Johnsongrass ([3]; 61 g ai/ha): 5
- Plant response rating, Johnsongrass ([3]; 62 g ai/ha): 50
- Plant response rating, Johnsongrass ([3]; 125 g ai/ha): 65
- Plant response rating, Wheat ([4]; Postemergence, 16 g ai/ha): 45
- Plant response rating, Wheat ([4]; Postemergence, 31 g ai/ha): 65
- Plant response rating, Wheat ([4]; Postemergence, 62 g ai/ha): 78
- Plant response rating, Wheat ([4]; Postemergence, 125 g ai/ha): 80
- Plant response rating, Wheat ([4]; Preemergence, 31 g ai/ha): 90
- Plant response rating, Wheat ([4]; Preemergence, 61 g ai/ha): 5
- Plant response rating, Wheat ([4]; Preemergence, 62 g ai/ha): 90
- Plant response rating, Wheat ([4]; Preemergence, 125 g ai/ha): 90
- Plant response rating, Barnyardgrass ([5]; Postemergence, 16 g ai/ha): 60
- Plant response rating, Barnyardgrass ([5]; Postemergence, 31 g ai/ha): 85
- Plant response rating, Barnyardgrass ([5]; Postemergence, 62 g ai/ha): 90
- Plant response rating, Barnyardgrass ([5]; Postemergence, 125 g ai/ha): 90
- Plant response rating, Barnyardgrass ([5]; Preemergence, 31 g ai/ha): 75
- Plant response rating, Barnyardgrass ([5]; Preemergence, 61 g ai/ha): 25
- Plant response rating, Barnyardgrass ([5]; Preemergence, 62 g ai/ha): 85
- Plant response rating, Barnyardgrass ([5]; Preemergence, 125 g ai/ha): 95
- Plant response rating, Kochia (kochia (Kochia scoparia) [6]; Postemergence, 16 g ai/ha): 13
- Plant response rating, Kochia (kochia (Kochia scoparia) [6]; Postemergence, 31 g ai/ha): 18
- Plant response rating, Kochia (kochia (Kochia scoparia) [6]; Postemergence, 62 g ai/ha): 28
- Plant response rating, Kochia (kochia (Kochia scoparia) [6]; Postemergence, 125 g ai/ha): 28
- Plant response rating, Kochia (kochia (Kochia scoparia) [6]; Preemergence, 31 g ai/ha): 20
- Plant response rating, Kochia (kochia (Kochia scoparia) [6]; Preemergence, 61 g ai/ha): 5
- Plant response rating, Kochia (kochia (Kochia scoparia) [6]; Preemergence, 62 g ai/ha): 70
- Plant response rating, Kochia (kochia (Kochia scoparia) [6]; Preemergence, 125 g ai/ha): 90
- Plant response rating (0 to 100 scale) ([7]; Postemergence, 31 g ai/ha): 100
- Plant response rating (0 to 100 scale) ([7]; Postemergence, 125 g ai/ha): 100
- Plant response rating (0 to 100 scale) ([7]; Preemergence, 31 g ai/ha): 100
- Plant response rating (0 to 100 scale) ([7]; Preemergence, 125 g ai/ha): 100
- Plant response rating (0 to 100 scale) ([8]; Postemergence, 31 g ai/ha): 90
- Plant response rating (0 to 100 scale) ([8]; Postemergence, 125 g ai/ha): 100
- Plant response rating (0 to 100 scale) ([8]; Preemergence, 31 g ai/ha): 80
- Plant response rating (0 to 100 scale) ([8]; Preemergence, 125 g ai/ha): 100
- Plant response rating (0 to 100 scale) ([9]; Postemergence, 31 g ai/ha): 100
- Plant response rating (0 to 100 scale) ([9]; Postemergence, 125 g ai/ha): 100
- Plant response rating (0 to 100 scale) ([9]; Preemergence, 31 g ai/ha): 100
- Plant response rating (0 to 100 scale) ([9]; Preemergence, 125 g ai/ha): 100
- Plant response rating (0 to 100 scale) ([10]; Postemergence, 31 g ai/ha): 80
- Plant response rating (0 to 100 scale) ([10]; Postemergence, 125 g ai/ha): 90
- Plant response rating (0 to 100 scale) ([10]; Preemergence, 31 g ai/ha): 90
- Plant response rating (0 to 100 scale) ([10]; Preemergence, 125 g ai/ha): 100
- Plant response rating (0 to 100 scale) (kochia (Kochia scoparia) [11]; Postemergence, 31 g ai/ha): 80
- Plant response rating (0 to 100 scale) (kochia (Kochia scoparia) [11]; Postemergence, 125 g ai/ha): 90
- Plant response rating (0 to 100 scale) (kochia (Kochia scoparia) [11]; Preemergence, 31 g ai/ha): 50
- Plant response rating (0 to 100 scale) (kochia (Kochia scoparia) [11]; Preemergence, 125 g ai/ha): 100
- Plant response rating (0 to 100 scale) ([12]; 31 g ai/ha): 50
- Plant response rating (0 to 100 scale) ([12]; 125 g ai/ha): 70
- Plant response rating (0 to 100 scale) (corn (Zea mays); 31 g ai/ha): 10
- Plant response rating (0 to 100 scale) (corn (Zea mays); 125 g ai/ha): 20
- Plant response rating (0 to 100 scale) ([13]; 31 g ai/ha): 50
- Plant response rating (0 to 100 scale) ([13]; 125 g ai/ha): 80
- Plant response rating (0 to 100 scale) ([14]; 31 g ai/ha): 100
- Plant response rating (0 to 100 scale) ([14]; 125 g ai/ha): 100
